Measurements: patent US12595264B2, “Heterocyclic GLP-1 agonists” (Gasherbrum Bio, Inc., priority 2020, dated 2026)

target: T1, GLP-1 Receptor (Homo sapiens, UniProt P43220); assay: GLP-1R agonist cAMP stimulation assay (HEK293/GLP1R/CRE-LUC cells, HTRF cAMP dynamic 2 kit); type: cell-based; conditions: HEK293/CRE-Luc cell line (HDB), 30 min incubation, read-out: GLP1R cAMP Stimulation DR: EC50 (nM) [Species: Human, Assay Cell Line: HDB]
T1 construct: host or cells: HEK293/GLP1R/CRE-LUC (HEK293/CRE-Luc stably expressing GLP-1R)
T1 sequence (P43220 24-463): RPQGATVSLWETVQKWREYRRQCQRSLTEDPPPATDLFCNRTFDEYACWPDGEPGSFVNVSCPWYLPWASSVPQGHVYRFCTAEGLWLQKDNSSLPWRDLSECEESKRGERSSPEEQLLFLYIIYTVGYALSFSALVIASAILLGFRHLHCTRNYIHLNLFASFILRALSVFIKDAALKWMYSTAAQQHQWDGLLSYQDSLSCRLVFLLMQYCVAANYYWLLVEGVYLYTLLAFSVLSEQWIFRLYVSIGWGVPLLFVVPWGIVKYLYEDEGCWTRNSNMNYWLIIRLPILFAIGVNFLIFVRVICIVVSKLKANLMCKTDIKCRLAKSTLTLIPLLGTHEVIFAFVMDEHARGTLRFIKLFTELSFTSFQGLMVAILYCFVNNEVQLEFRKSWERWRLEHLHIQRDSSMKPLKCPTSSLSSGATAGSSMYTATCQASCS
Method: Activation of GLP-1 receptor is known to stimulate cyclic AMP (cAMP) production in cells which indicates primary coupling to the Gαs subunit of the G protein heterotrimeric complex.
To optimize functional activity directed toward Gαs coupling, a HEK293/CRE-Luc cell line developed by HDB stably expressing the GLP-1 Receptor was used. 200×concentration of compound working solutions were prepared (Agilent Technologies Bravo) with ½ log serial dilution in 384-well Echo LDV plate (Labcyte, Cat #LP-0200). 50 nL/well 200×concentration of compound working solutions were moved to 384-well white low volume plate (Greiner, Cat #784075) using Labcyte ECHO550. 1×10^5 cells/mL HEK293/GLP1R/CRE-LUC(HD Biosciences) cell suspensions prepared with assay buffer[DPBS containing 0.5 mM IBMX (Sigma, Cat #15879) and 0.1% BSA (GENVIEW, Cat #FA016-100g)], 10 uL cell suspensions were added to each well of previous generated assay plate which already contains 50n1 compound at 200× concentration using ThermoFisher Multidrop Combi (1000 cells/well). Seal the plate and incubate at 37° C. with 5% CO2 for 30 min.
After incubation the cAMP assay signal was generated using cAMP dynamic 2 Kit (Cisbio). 5 μL cAMP-d2 working solution was added to each well, followed with 5 μL Anti-cAMP antibody-cryptate working solution added to each well using ThermoFisher Multidrop Combi. Incubate at room temperature for 1 hour protected from light. Read the fluorescence at 665 and 615 nm with Reader PerkinElmer EnVision. % Activity=100%×(mean RLU of test sample−mean RLU of vehicle control)/(mean RLU of MAX control−mean RLU of vehicle control))

EC50 [nM]	Compound
0.1	CCP(=O)(CC)c1ccc(-n2ccn(-c3c(-c4cc(C)c(F)c(C)c4)nn4c3C(C)N(C(=O)c3cc5cc(C6CCOCC6)ccc5n3[C@@]3(c5noc(=O)[nH]5)C[C@@H]3C)CC4)c2=O)cc1NC (mixture of isomers) [Compound 108a, 3-((1S,2S)-1-(2-(3-(3-(4-(diethylphosphoryl)-3-(methylamino)phenyl)-2-oxo-2,3-dihydro-1H-imidazol-1-yl)-2-(4-fluoro-3,5-dimethylphenyl)-4-methyl-4,5,6,7-tetrahydropyrazolo[1,5-a]pyrazine-5-carbonyl)-5-(tetrahydro-2H-pyran-4-yl)-1H-indol-1-yl)-2-methylcyclopropyl)-1,2,4-oxadiazol-5(4H)-one]
0.13	Cc1cc(-c2nn3c(c2-n2ccn(-c4ccc5c(cnn5C)c4F)c2=O)C(C)N(C(=O)c2cc4cc(C5CCOCC5)ccc4n2[C@@]2(c4noc(=O)[nH]4)C[C@@H]2C)CC3)cc(C)c1F (single isomer, unassigned) [Compound 110a]
0.042	CCP(=O)(CC)c1ccc(-n2ccn(-c3c(-c4cc(C)c(F)c(C)c4)nn4c3C(C)N(C(=O)c3cc5cc(C6CCOCC6)ccc5n3[C@@]3(c5noc(=O)[nH]5)C[C@@H]3C)CC4)c2=O)cc1NC (single isomer, unassigned) [Compound 111a]
42	CCP(=O)(CC)c1ccc(-n2ccn(-c3c(-c4cc(C)c(F)c(C)c4)nn4c3C(C)N(C(=O)c3cc5cc(C6CCOCC6)ccc5n3[C@@]3(c5noc(=O)[nH]5)C[C@@H]3C)CC4)c2=O)cc1NC (single isomer, unassigned) [Compound 112a]
0.17	CCP(=O)(CC)c1ccc(-n2ccn(-c3c(-c4cc(C)c(F)c(C)c4)nn4c3C(C)N(C(=O)c3cc5cc([C@H]6CCOC(C)(C)C6)ccc5n3[C@@]3(c5noc(=O)[nH]5)C[C@@H]3C)CC4)c2=O)cc1NC (single isomer, unassigned) [Compound 113a]
0.068	CCP(=O)(CC)c1ccc(-n2ccn(-c3c(-c4cc(C)c(F)c(C)c4)nn4c3C(C)N(C(=O)c3cc5cc(N6CCOCC6)ccc5n3[C@@]3(c5noc(=O)[nH]5)C[C@@H]3C)CC4)c2=O)cc1NC (single isomer, unassigned) [Compound 114a]
0.15	CCP(=O)(CC)c1ccc(-n2ccn(-c3c(-c4cc(C)c(F)c(C)c4)nn4c3C(C)N(C(=O)c3cc5cc(N6CCOC(C)(C)C6)ccc5n3[C@@]3(c5noc(=O)[nH]5)C[C@@H]3C)CC4)c2=O)cc1NC (single isomer, unassigned) [Compound 115a]
0.42	CCP(=O)(CC)c1ccc(-n2ccn(-c3c(-c4cc(C)c(F)c(C)c4)nn4c3C(C)N(C(=O)c3cc5cc(C6CCC(F)(F)CC6)ccc5n3[C@@]3(c5noc(=O)[nH]5)C[C@@H]3C)CC4)c2=O)cc1NC (single isomer, unassigned) [Compound 116a]
0.07	Cc1cc(-c2nn3c(c2-n2ccn(-c4ccc5c(cnn5C)c4F)c2=O)C(C)N(C(=O)c2cc4cc([C@H]5CCOC(C)(C)C5)ccc4n2[C@@]2(c4noc(=O)[nH]4)C[C@@H]2C)CC3)cc(C)c1F (single isomer, unassigned) [Compound 117a]
3.41	Cc1cc(-c2nn3c(c2-n2ccn(-c4ccc5c(cnn5C)c4)c2=O)CN(C(=O)c2cc4cc(C5CCOCC5)ccc4n2C2(c4noc(=O)[nH]4)CC2)CC3)cc(C)c1F [Compound 101, 3-(1-(2-(2-(4-fluoro-3,5-dimethylphenyl)-3-(3-(1-methyl-1H-indazol-5-yl)-2-oxo-2,3-dihydro-1H-imidazol-1-yl)-4,5,6,7-tetrahydropyrazolo[1,5-a]pyrazine-5-carbonyl)-5-(tetrahydro-2H-pyran-4-yl)-1H-indol-1-yl)cyclopropyl)-1,2,4-oxadiazol-5(4H)-one]
3300	Cc1cc(-c2nn3c(c2-n2ccn(-c4ccc5c(cnn5C)c4)c2=O)CN(C(=O)c2cc4cc(C5CCOCC5)ccc4n2C2(c4noc(=O)[nH]4)CCC2)CC3)cc(C)c1F [Compound 102, 3-(1-(2-(2-(4-fluoro-3,5-dimethylphenyl)-3-(3-(1-methyl-1H-indazol-5-yl)-2-oxo-2,3-dihydro-1H-imidazol-1-yl)-4,5,6,7-tetrahydropyrazolo[1,5-a]pyrazine-5-carbonyl)-5-(tetrahydro-2H-pyran-4-yl)-1H-indol-1-yl)cyclobutyl)-1,2,4-oxadiazol-5(4H)-one]
0.29	Cc1cc(-c2nn3c(c2-n2ccn(-c4ccc5c(cnn5C)c4)c2=O)C(C)N(C(=O)c2cc4cc(C5CCOCC5)ccc4n2C2(c4noc(=O)[nH]4)CC2)CC3)cc(C)c1F (stereo not shown) [Compound 103, 3-(1-(2-(2-(4-fluoro-3,5-dimethylphenyl)-4-methyl-3-(3-(1-methyl-1H-indazol-5-yl)-2-oxo-2,3-dihydro-1H-imidazol-1-yl)-4,5,6,7-tetrahydropyrazolo[1,5-a]pyrazine-5-carbonyl)-5-(tetrahydro-2H-pyran-4-yl)-1H-indol-1-yl)cyclopropyl)-1,2,4-oxadiazol-5(4H)-one]
0.18	CCP(=O)(CC)c1ccc(-n2ccn(-c3c(-c4cc(C)c(F)c(C)c4)nn4c3C(C)N(C(=O)c3cc5cc(C6CCOCC6)ccc5n3C3(c5noc(=O)[nH]5)CC3)CC4)c2=O)cc1NC (stereo not shown) [Compound 104, 3-(1-(2-(3-(3-(4-(diethylphosphoryl)-3-(methylamino)phenyl)-2-oxo-2,3-dihydro-1H-imidazol-1-yl)-2-(4-fluoro-3,5-dimethylphenyl)-4-methyl-4,5,6,7-tetrahydropyrazolo[1,5-a]pyrazine-5-carbonyl)-5-(tetrahydro-2H-pyran-4-yl)-1H-indol-1-yl)cyclopropyl)-1,2,4-oxadiazol-5(4H)-one]
1.86	Cc1cc(-c2nn3c(c2-n2ccn(-c4ccc5c(cnn5C)c4)c2=O)CN(C(=O)c2cc4cc(C5CCOCC5)ccc4n2[C@@]2(c4noc(=O)[nH]4)C[C@@H]2C)CC3)cc(C)c1F [Compound 105a, 3-((1S,2S)-1-(2-(2-(4-fluoro-3,5-dimethylphenyl)-3-(3-(1-methyl-1H-indazol-5-yl)-2-oxo-2,3-dihydro-1H-imidazol-1-yl)-4,5,6,7-tetrahydropyrazolo[1,5-a]pyrazine-5-carbonyl)-5-(tetrahydro-2H-pyran-4-yl)-1H-indol-1-yl)-2-methylcyclopropyl)-1,2,4-oxadiazol-5(4H)-one]
113	Cc1cc(-c2nn3c(c2-n2ccn(-c4ccc5c(cnn5C)c4)c2=O)CN(C(=O)c2cc4cc(C5CCOCC5)ccc4n2[C@@]2(C(=O)O)C[C@@H]2C)CC3)cc(C)c1F [Compound 106a, (1S,2S)-1-(2-(2-(4-fluoro-3,5-dimethylphenyl)-3-(3-(1-methyl-1H-indazol-5-yl)-2-oxo-2,3-dihydro-1H-imidazol-1-yl)-4,5,6,7-tetrahydropyrazolo[1,5-a]pyrazine-5-carbonyl)-5-(tetrahydro-2H-pyran-4-yl)-1H-indol-1-yl)-2-methylcyclopropanecarboxylic acid]
0.18	Cc1cc(-c2nn3c(c2-n2ccn(-c4ccc5c(cnn5C)c4F)c2=O)C(C)N(C(=O)c2cc4cc(C5CCOCC5)ccc4n2[C@@]2(c4noc(=O)[nH]4)C[C@@H]2C)CC3)cc(C)c1F (stereo partly drawn) [Compound 109a, 3-((1S,2S)-1-(2-(3-(3-(4-fluoro-1-methyl-1H-indazol-5-yl)-2-oxo-2,3-dihydro-1H-imidazol-1-yl)-2-(4-fluoro-3,5-dimethylphenyl)-4-methyl-4,5,6,7-tetrahydropyrazolo[1,5-a]pyrazine-5-carbonyl)-5-(tetrahydro-2H-pyran-4-yl)-1H-indol-1-yl)-2-methylcyclopropyl)-1,2,4-oxadiazol-5(4H)-one]

same assay, conditions: HEK293/CRE-Luc cell line (HDB), 30 min incubation, read-out: GLP1R cAMP Stimulation DR: pEC50 (M) [Species: Human, Assay Cell Line: HDB] (converted)

EC50 [nM]	Compound
0.0316	CNc1cc(-n2ccn(-c3c(-c4cc(C)c(F)c(C)c4)nn4c3C(C)N(C(=O)c3cc5cc(C6CCOCC6)ccc5n3[C@@]3(c5noc(=O)[nH]5)C[C@@H]3C)CC4)c2=O)ccc1P(C)(C)=O (single isomer, unassigned) [Compound 118a]
3.31	Cc1cc(-c2nn3c(c2-n2ccn(-c4ccc5c(cnn5C)c4)c2=O)CN(C(=O)c2cc4cc(C5CCOCC5)ccc4n2C2(c4noc(=O)[nH]4)CC2)CC3)cc(C)c1F [Compound 101, 3-(1-(2-(2-(4-fluoro-3,5-dimethylphenyl)-3-(3-(1-methyl-1H-indazol-5-yl)-2-oxo-2,3-dihydro-1H-imidazol-1-yl)-4,5,6,7-tetrahydropyrazolo[1,5-a]pyrazine-5-carbonyl)-5-(tetrahydro-2H-pyran-4-yl)-1H-indol-1-yl)cyclopropyl)-1,2,4-oxadiazol-5(4H)-one]
2190	Cc1cc(-c2nn3c(c2-n2ccn(-c4ccc5c(cnn5C)c4)c2=O)CN(C(=O)c2cc4cc(C5CCOCC5)ccc4n2C2(c4noc(=O)[nH]4)CCC2)CC3)cc(C)c1F [Compound 102, 3-(1-(2-(2-(4-fluoro-3,5-dimethylphenyl)-3-(3-(1-methyl-1H-indazol-5-yl)-2-oxo-2,3-dihydro-1H-imidazol-1-yl)-4,5,6,7-tetrahydropyrazolo[1,5-a]pyrazine-5-carbonyl)-5-(tetrahydro-2H-pyran-4-yl)-1H-indol-1-yl)cyclobutyl)-1,2,4-oxadiazol-5(4H)-one]
